According to paper PMC11121064 (International Journal of Molecular Sciences, 2024):
Where two headings read alike, the source gives them in different places.

How the values were obtained:
[1] = test system: intrinsic coagulation pathway; conditions: 100 µmol/L (highest concentration), mean within reference range 26.7–40.0 s
Procedure: To evaluate the intrinsic coagulation pathway, the plasma was mixed with the tested compounds at the same concentrations as in the PT analysis, and the activated partial thromboplastin time (APTT) was measured.
(§1) The plasma was used for the hemostasis tests.
The PT, APTT and TT were measured using a Coag Chrom 3003 coagulometer (Bio-Ksel, Grudziadz, Poland) according to the manufacturer’s instructions, using commercially available reagents (Bio-Ksel, Grudziadz, Poland). The experiment was conducted as three independent experiments (in duplicate); distilled water or methanol was used as the control.

[2] = test system: extrinsic coagulation pathway; test: Prothrombin time (PT) and INR in human citrated plasma
Procedure: The first stage assessed the changes in plasma hemostasis occurring under the influence of the five test compounds. Plasma was incubated with the tested compounds and ligands at six different concentrations ranging from 0.5 to 100 µmol/L. The plasma was obtained from five different volunteers. To evaluate the impact on the extrinsic coagulation pathway, the prothrombin time (PT) was determined in human citrated plasma, expressed in seconds and as the international normalized ratio (INR) (Figure 6 and Figure 7).
as §1
The results are presented as means ± standard deviation (SD).

[3] = test system: clot formation and fibrinolysis in human citrate plasma; test: Clot formation and fibrinolysis test (CL-test); conditions: for CLAUC overall potential for clot formation and fibrinolysis / Fmax maximum clotting / Fvo initial plasma clotting velocity / Lmax maximum lysis / Lvo initial clot fibrinolysis velocity / Sc area under the curve of stable clot formation / Sf area under the fibrinolysis curve / Sr area under the clot formation curve / Tc clot stabilization time / Tf plasma clotting time / Tl fibrinolysis time / Tt thrombin time: mean, n = 3
Procedure: Following this, the impact of the tested complex compounds and their ligands on the overall clot formation and fibrinolysis potential (CLAUC) and individual kinetic parameters was assessed using the CL-test. The analysis was performed using plasma from three different donors.
The blood samples used were residual materials from routine diagnostic studies, destined for disposal as medical waste. […] Platelet-poor plasma (PPP) and red blood cells were obtained using centrifugation at 3000× g for 10 min at room temperature using a Mikro 22R centrifuge (Hettich Zentrifugen, Tuttlingen, Germany). The plasma was used for the hemostasis tests. Before use, the centrifuged erythrocyte mass was washed three times with physiological saline solution to remove the plasma protein residues and other blood cells.
The influence of the compounds on the overall hemostasis potential was determined using the CL-test through continuous measurement of changes in optical transmittance, as described previously [53, 54]. The experiments were conducted using three-fold diluted human citrate plasma, t-PA and thrombin. […] The results are presented as means ± SD (n = 3). The curves were used to determine the kinetic parameters of clot formation, stabilization and fibrinolysis using dedicated software [51]. The following parameters of clot formation were determined: Tt—thrombin time (s), Fmax—maximum clotting (%T), Tf—plasma clotting time (s), Fvo—initial plasma clotting velocity (%T/min), Sr—area under the clot formation curve (%Txmin). The parameters of the clot stabilization phase comprised Tc—clot stabilization time (s) and Sc—area under the curve of stable clot formation (%Txmin). The parameters of fibrinolysis comprised Lmax—maximum lysis (%T), Tl—fibrinolysis time (s), Lvo—initial clot fibrinolysis velocity (%T/min) and Sf—area under the fibrinolysis curve (%Txmin). Additionally, the overall potential for clot formation and fibrinolysis, i.e., CLAUC (%Txmin), was also estimated.

red blood cells (RBCs) = test: Erythrotoxicity (RBC hemolysis, lysis assay); type: cell-based, human; conditions: 24 h, 50 µmol/L and 100 µmol/L, 2% RBC suspension
Procedure: Their erythrotoxicity was also assessed. Red blood cells are model cells used in basic studies of the biocompatibility of new compounds and some medical materials. […] The amount of hemoglobin released from damaged cells was measured using a spectrophotometer.
Erythrotoxicity was assessed in a 2% erythrocyte suspension following 1 h and 24 h of incubation with the tested compounds.
as §1
The influence of the compounds on the red blood cells (RBCs)’ membrane integrity was assessed using a lysis assay, as described previously. Briefly, the tested compounds (1 to 100 μmol/L) were incubated in a 2% RBC suspension in 0.9% NaCl at 37 °C for 24 h; solvent was used as the control. The samples were then centrifuged at 3000× g for 10 min, and the absorbance of the supernatant was determined at 550 nm (maximum absorbance for hemoglobin). The results are presented as the degree of hemolysis, i.e., the percentage of released hemoglobin. A sample containing Triton X-100 was used as the positive control (100% hemolysis), whereas a sample of saline solution represented spontaneous hemolysis of the RBCs (control).

[4] = test system: human BJ fibroblast cell line; test: MTT reduction assay, BJ fibroblasts; type: cell-based; conditions: 72 h
Procedure: (§2) The cytotoxic activity was measured against the melanoma A375 tumor cell line (ECACC) and the human BJ fibroblast cell line (ATCC) using an MTT reduction assay. The selectivity index (SI) was calculated using the following formula: SI = IC50 (BJ)/ IC50 (A375).
(§3) The A375 cell line was purchased from the European Collection of Authenticated Cell Cultures (ECACC, Salisbury, UK) and the BJ human fibroblast cell line from the American Type Culture Collection (ATCC, Manassas, VA, USA). All the cell lines were grown as a monolayer in standard conditions: 37 °C, 100% humidity, under an atmosphere of 5% CO2. The A375 cells were cultured in Dulbecco’s Modified Eagle Medium supplemented with 15% fetal calf serum and 50 IU/mL penicillin/streptomycin. The BJ cell line was grown in EMEM with EBSS, NEAA and sodium pyruvate with L-Glutamine supplemented, 10% fetal bovine serum and 50 IU/mL penicillin/streptomycin.
(§4) Next, the cells were seeded in 96-well plates at a density of 5000 cells per well and incubated overnight to reach the logarithmic growth phase. […] After 72 h, 10 µL of MTT solution (5 g/L) was added into each well and incubated for an additional four hours. Subsequently, the medium was removed, and 100 µL of dimethyl sulfoxide (DMSO) was added into each well. The absorbance was then measured at 570 nm using a SPECTROstar Nano microplate reader (BMG Biotech Inc., Cary, NC, USA)/Tecan Spark 10M. The mean value from three independent BJ and A375 cell cultures was taken to calculate the cell viability, expressed as a percentage of the control values, i.e., untreated cells assumed as 100%.

[5] = test system: melanoma A375 tumor cell line; test: MTT reduction assay, A375 melanoma cells; type: cell-based, human
Procedure: as §2
as §3, with “The A375 cells were cultured in Dulbecco’s Modified Eagle Medium supplemented with 15% fetal calf serum and 50 IU/mL penicillin/streptomycin.” left out
as §4

SMILES: Cc1ncc([N+](=O)[O-])n1CCO.Cc1ncc([N+](=O)[O-])n1CCO.Cc1ncc([N+](=O)[O-])n1CCO.Cc1ncc([N+](=O)[O-])n1CCO.O=S(=O)([O-])[O-].[Ag+].[Ag+] [[(MTZ)2Ag]2SO4, metronidazole silver(I) sulfate]
- effect on APTT ([1]; listed as metronidazole complex with Ag2SO4): significantly prolonged
- effect on APTT ([1]; listed as metronidazole with Ag2SO4): statistically significant prolongation
- prolongation of PT and INR beyond the reference range ([2]; up to 100 µmol/L, reference PT 9.7–14.6 s, INR 0.8–1.2): do not cause pathological prolongation
- CLAUC overall potential for clot formation and fibrinolysis ([3]; 0.5 µmol/L): 348.3 %*min
- Fmax maximum clotting ([3]; 0.5 µmol/L): 70.6%
- Fvo initial plasma clotting velocity ([3]; 0.5 µmol/L): 160.0 %/min
- Lmax maximum lysis ([3]; 0.5 µmol/L): 69.8%
- Lvo initial clot fibrinolysis velocity ([3]; 0.5 µmol/L): 20.3 %/min
- Sc area under the curve of stable clot formation ([3]; 0.5 µmol/L): 165.1 %*min
- Sf area under the fibrinolysis curve ([3]; 0.5 µmol/L): 135.9 %*min
- Sr area under the clot formation curve ([3]; 0.5 µmol/L): 47.3 %*min
- Tc clot stabilization time ([3]; 0.5 µmol/L): 144.3 s
- Tf plasma clotting time ([3]; 0.5 µmol/L): 59.1 s
- Tl fibrinolysis time ([3]; 0.5 µmol/L): 196.7 s
- Tt thrombin time ([3]; 0.5 µmol/L): 20.1 s
- CLAUC overall potential for clot formation and fibrinolysis ([3]; 1.0 µmol/L): 417.7 %*min
- Fmax maximum clotting ([3]; 1.0 µmol/L): 73.8%
- Fvo initial plasma clotting velocity ([3]; 1.0 µmol/L): 181.0 %/min
- Lmax maximum lysis ([3]; 1.0 µmol/L): 73.5%
- Lvo initial clot fibrinolysis velocity ([3]; 1.0 µmol/L): 19.8 %/min
- Sc area under the curve of stable clot formation ([3]; 1.0 µmol/L): 207.8 %*min
- Sf area under the fibrinolysis curve ([3]; 1.0 µmol/L): 157.6 %*min
- Sr area under the clot formation curve ([3]; 1.0 µmol/L): 52.4 %*min
- Tc clot stabilization time ([3]; 1.0 µmol/L): 174.3 s
- Tf plasma clotting time ([3]; 1.0 µmol/L): 61.2 s
- Tl fibrinolysis time ([3]; 1.0 µmol/L): 226.3 s
- Tt thrombin time ([3]; 1.0 µmol/L): 20.5 s
- CLAUC overall potential for clot formation and fibrinolysis ([3]; 5.0 µmol/L): 411.1 %*min
- Fmax maximum clotting ([3]; 5.0 µmol/L): 78.6%
- Fvo initial plasma clotting velocity ([3]; 5.0 µmol/L): 212.3 %/min
- Lmax maximum lysis ([3]; 5.0 µmol/L): 77.9%
- Lvo initial clot fibrinolysis velocity ([3]; 5.0 µmol/L): 24.8 %/min
- Sc area under the curve of stable clot formation ([3]; 5.0 µmol/L): 210.7 %*min
- Sf area under the fibrinolysis curve ([3]; 5.0 µmol/L): 155.5 %*min
- Sr area under the clot formation curve ([3]; 5.0 µmol/L): 44.8 %*min
- Tc clot stabilization time ([3]; 5.0 µmol/L): 166.7 s
- Tf plasma clotting time ([3]; 5.0 µmol/L): 50.2 s
- Tl fibrinolysis time ([3]; 5.0 µmol/L): 204.7 s
- Tt thrombin time ([3]; 5.0 µmol/L): 19.7 s
- CLAUC overall potential for clot formation and fibrinolysis ([3]; 10.0 µmol/L): 406.3 %*min
- Fmax maximum clotting ([3]; 10.0 µmol/L): 75.7%
- Fvo initial plasma clotting velocity ([3]; 10.0 µmol/L): 178.3 %/min
- Lmax maximum lysis ([3]; 10.0 µmol/L): 75.0%
- Lvo initial clot fibrinolysis velocity ([3]; 10.0 µmol/L): 21.5 %/min
- Sc area under the curve of stable clot formation ([3]; 10.0 µmol/L): 203.7 %*min
- Sf area under the fibrinolysis curve ([3]; 10.0 µmol/L): 156.2 %*min
- Sr area under the clot formation curve ([3]; 10.0 µmol/L): 46.4 %*min
- Tc clot stabilization time ([3]; 10.0 µmol/L): 166.7 s
- Tf plasma clotting time ([3]; 10.0 µmol/L): 55.0 s
- Tl fibrinolysis time ([3]; 10.0 µmol/L): 208.3 s
- Tt thrombin time ([3]; 10.0 µmol/L): 20.7 s
- CLAUC overall potential for clot formation and fibrinolysis ([3]; 50.0 µmol/L): 421.1 %*min
- Fmax maximum clotting ([3]; 50.0 µmol/L): 76.9%
- Fvo initial plasma clotting velocity ([3]; 50.0 µmol/L): 159.6 %/min
- Lmax maximum lysis ([3]; 50.0 µmol/L): 74.3%
- Lvo initial clot fibrinolysis velocity ([3]; 50.0 µmol/L): 21.7 %/min
- Sc area under the curve of stable clot formation ([3]; 50.0 µmol/L): 184.0 %*min
- Sf area under the fibrinolysis curve ([3]; 50.0 µmol/L): 175.2 %*min
- Sr area under the clot formation curve ([3]; 50.0 µmol/L): 47.5 %*min
- Tc clot stabilization time ([3]; 50.0 µmol/L): 158.7 s
- Tf plasma clotting time ([3]; 50.0 µmol/L): 58.4 s
- Tl fibrinolysis time ([3]; 50.0 µmol/L): 200.7 s
- Tt thrombin time ([3]; 50.0 µmol/L): 20.7 s
- CLAUC overall potential for clot formation and fibrinolysis ([3]; 100.0 µmol/L): 390.3 %*min
- Fmax maximum clotting ([3]; 100.0 µmol/L): 72.3%
- Fvo initial plasma clotting velocity ([3]; 100.0 µmol/L): 159.3 %/min
- Lmax maximum lysis ([3]; 100.0 µmol/L): 72.0%
- Lvo initial clot fibrinolysis velocity ([3]; 100.0 µmol/L): 22.1 %/min
- Sc area under the curve of stable clot formation ([3]; 100.0 µmol/L): 194.4 %*min
- Sf area under the fibrinolysis curve ([3]; 100.0 µmol/L): 145.2 %*min
- Sr area under the clot formation curve ([3]; 100.0 µmol/L): 50.8 %*min
- Tc clot stabilization time ([3]; 100.0 µmol/L): 166.3 s
- Tf plasma clotting time ([3]; 100.0 µmol/L): 62.6 s
- Tl fibrinolysis time ([3]; 100.0 µmol/L): 219.7 s
- Tt thrombin time ([3]; 100.0 µmol/L): 20.5 s

SMILES: O=[N+]([O-])[O-].[Ag+] [AgNO3, silver(I) nitrate]
- erythrocyte hemolysis (red blood cells (RBCs)): > 60%
- IC50 [4]: > 100 µM
- effect on A375 cell viability ([5]; 72 h of exposure): dose-dependent reduction
- IC50 ([5]; MTT, 72 h): 11.1 ± 0.8 µM
- effect on CLAUC and kinetic parameters of clot formation and lysis ([3]; entire concentration range 0.5–100 µmol/L): no significant differences

SMILES: O=S(=O)([O-])[O-].[Ag+].[Ag+] [Ag2SO4, reference compound]
- erythrocyte hemolysis (red blood cells (RBCs)): > 60%
- effect on prothrombin time (PT) ([2]; 100 µmol/L, human citrated plasma): significantly lengthened
